Measured values from ChEMBL document CHEMBL1145266, “Design, synthesis, and biological activity of potent and selective inhibitors of mast cell tryptase” (Bioorg Med Chem Lett, 2005).

How the values were obtained:
Tryptase beta-1 [1] = molecular target: T1, Tryptase beta-1 (Homo sapiens, UniProt Q15661); assay: In vitro inhibitory activity against tryptase
[2] = Bioavailability in rat using combiPK (dose of 2 mg/kg p.o.); assay type: ADME, organism-based; details: in vivo, po
[3] = Bioavailability using combiPK assay in rats at a dose of 1 mg/kg administered intravenously; assay type: ADME, organism-based; details: rat, in vivo, iv, read-out: Bioavailabiility
[4] = Bioavailability in rat using combiPK (dose 1 mg/kg i.v.); assay type: ADME, organism-based; details: in vivo, iv
[5] = Bioavailability in rat (combiPK assay) (dose 2 mg/kg p.o.); assay type: ADME, organism-based; details: in vivo, po
[6] = Bioavailability in rat using combiPK assay (dose 1 mg/kg i.v.); assay type: ADME, organism-based; details: in vivo, iv
[7] = Inhibitory concentration against Trypsin was determined
[8] = Inhibitory concentration against Chymase was determined
[9] = Inhibitory concentration against Thrombin was determined
[10] = Inhibitory concentration against Factor Xa was determined
Tryptase beta-1 [11] = molecular target: T1, Tryptase beta-1; assay: Inhibition concentration against beta tryptase was determined
Tryptase beta-1 [12] = molecular target: T1, Tryptase beta-1; assay: Inhibitory concentration against alpha tryptase was determined
[13] = Bioavailability using combiPK assay in rats at a dose of 2 mg/kg administered orally; assay type: ADME, organism-based; details: rat, in vivo, po, read-out: Bioavailabiility

T1 sequence (Q15661 whole entry): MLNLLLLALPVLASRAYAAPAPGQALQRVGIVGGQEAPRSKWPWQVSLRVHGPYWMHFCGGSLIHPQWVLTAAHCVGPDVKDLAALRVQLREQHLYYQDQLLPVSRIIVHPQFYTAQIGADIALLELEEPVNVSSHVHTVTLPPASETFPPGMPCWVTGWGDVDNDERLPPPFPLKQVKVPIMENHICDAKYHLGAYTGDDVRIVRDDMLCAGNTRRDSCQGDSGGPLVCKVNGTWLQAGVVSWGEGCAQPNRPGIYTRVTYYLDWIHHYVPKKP

Structure (SMILES) | Ki (Tryptase beta-1 [1]) | also measured
Cc1ccc2c(C(=O)N3CCC(c4cccc(CN)c4)CC3)c[nH]c2c1 | > 2000 nM | 
Cc1cccc2c(C(=O)N3CCC(c4cccc(CN)c4)CC3)c[nH]c12.O=C(O)C(F)(F)F | 61 nM | bioavailability [2]: 19%; bioavailability [3]: 19%
NCc1cccc(C2CCN(C(=O)c3cn(-c4nccs4)c4ccccc34)CC2)c1 | 373 nM | 
NCc1cccc(C2CCN(C(=O)c3cn(S(=O)(=O)c4ccccc4)c4ccccc34)CC2)c1.O=C(O)C(F)(F)F | 128 nM | bioavailability [2]: 17%; bioavailability [4]: 17%
NCc1cccc(C2CCN(C(=O)c3c[nH]c4c(F)cccc34)CC2)c1 | 368 nM | 
CC(=O)n1cc(C(=O)N2CCC(c3cccc(CN)c3)CC2)c2ccccc21 | 240 nM | 
NCc1cccc(C2CCN(C(=O)c3cn(CC4CC4)c4ccccc34)CC2)c1 | 141 nM | 
CC(C)n1cc(C(=O)N2CCC(c3cccc(CN)c3)CC2)c2ccccc21 | 310 nM | 
Cn1cc(C(=O)N2CCC(c3cccc(CN)c3)CC2)c2ccccc21 | 155 nM | 
Cc1cccc2[nH]cc(C(=O)N3CCC(c4cccc(CN)c4)CC3)c12 | > 2000 nM | 
COCCn1cc(C(=O)N2CCC(c3cccc(CN)c3)CC2)c2cccc(C)c21 | 32 nM | 
NCc1cccc(C2CCN(C(=O)c3cn(CC4CCCCC4)c4ccccc34)CC2)c1 | 497 nM | 
NCc1cccc(C2CCN(C(=O)c3cn(C(=O)c4cccs4)c4ccccc34)CC2)c1 | 246 nM | 
CCCCn1cc(C(=O)N2CCC(c3cccc(CN)c3)CC2)c2ccccc21.O=C(O)C(F)(F)F | 49 nM | bioavailability [5]: 9.3%; bioavailability [6]: 9.3%
COCCn1cc(C(=O)N2CCC(c3cccc(CN)c3)CC2)c2ccccc21 | 57 nM | 
CCCn1cc(C(=O)N2CCC(c3cccc(CN)c3)CC2)c2ccccc21 | 185 nM | 
CCCCCCn1cc(C(=O)N2CCC(c3cccc(CN)c3)CC2)c2ccccc21 | 125 nM | 
Cc1ccc2[nH]cc(C(=O)N3CCC(c4cccc(CN)c4)CC3)c2c1 | 101 nM | 
CC(C)Cn1cc(C(=O)N2CCC(c3cccc(CN)c3)CC2)c2ccccc21 | 116 nM | 
CCCn1cc(C(=O)N2CCC(c3cccc(CN)c3)CC2)c2cccc(C)c21 | 41 nM | 
CCn1cc(C(=O)N2CCC(c3cccc(CN)c3)CC2)c2cccc(C)c21.O=C(O)C(F)(F)F | 41 nM | bioavailability [5]: 26%; bioavailability [6]: 26%
CCCCn1cc(C(=O)N2CCC(c3cccc(CN)c3)CC2)c2cccc(C)c21.O=C(O)C(F)(F)F | 68 nM | IC50 [7]: > 10000 nM; IC50 [8]: > 10000 nM; IC50 [9]: > 10000 nM; IC50 [10]: > 10000 nM; IC50 (Tryptase beta-1 [11]): 68 nM; IC50 (Tryptase beta-1 [12]): 3690 nM; bioavailability [6]: 33%
CCn1cc(C(=O)N2CCC(c3cccc(CN)c3)CC2)c2ccccc21.O=C(O)C(F)(F)F | 124 nM | bioavailability [5]: 11%; bioavailability [6]: 11%
NCc1cccc(C2CCN(C(=O)c3cn(-c4cccnc4)c4ccccc34)CC2)c1 | 197 nM | 
CS(=O)(=O)n1cc(C(=O)N2CCC(c3cccc(CN)c3)CC2)c2ccccc21 | 162 nM | 
NCc1cccc(C2CCN(C(=O)c3c[nH]c4ccccc34)CC2)c1.O=C(O)C(F)(F)F | 290 nM | bioavailability [13]: 22%; bioavailability [4]: 22%
